{"source": "patent US9623063B2", "about": "“Extracts from Ajuga reptans cell lines, their preparation and use” (I.R.B. ISTITUTO DI RICERCHE BIOTECNOLOGICHE S.r.l., priority 2005, dated 2017)", "key": {"whole blood": {"tested_on": "whole blood", "assay": "Luminol dependent chemiluminescence of whole blood", "format": "cell-based, human", "details": "0.5 h, read-out: Whole blood chemiluminescence (IC50 mg/ml)", "procedure": "Anti-inflammatory activity has been assessed by measuring luminol dependent chemiluminescence generated by free radicals released from whole blood and from white blood cells. The assay has been performed using the following protocol: 10 μl of fresh human blood is mixed with 0.980 ml of Hanks saline solution containing 5×10^−5 M luminol and the test sample (at various concentrations). The chemiluminescent response is recorded continuously for 30 minutes at a temperature of 37° C. The results are expressed as IC50 (mg/ml), i.e. as the minimum sample concentration inhibiting chemiluminescence by 50% with respect to the control. To isolate white blood cells (WBC) from whole blood one proceeds in the following manner: 1 ml of fresh blood is layered onto a Hipaque gradient (p=1.119) and centrifuged at 250×g for 60 minutes at room temperature. Following centrifugation, the pellet containing the white blood cells is washed twice, using a large volume of cold Hanks saline solution. Finally, the washed WBCs are resuspended in 0.1 ml di HBSS containing foetal calf serum. 10^6 WBC are added to a chemiluminometer cuvette. 10 μl of PMA (final concentration equal to 10 nM) are added to induce the formation of free radicals. The chemiluminescent response is recorded continuously for 30 minutes at a temperature of 37° C. […]"}, "platelets": {"tested_on": "platelets", "assay": "ADP induced platelet aggregation-disaggregation in platelet rich plasma", "format": "cell-based, rabbit", "details": "for Control disaggregation: 10 minutes after ADP; for Control disaggregation / Control aggregation / Latency period: Mean ± SD (n = 6); for Control aggregation: ADP 10 μM", "procedure": "Platelet enriched rabbit plasma has been used to assess the platelet anti-aggregating and disaggregating properties of Ajuga reptans Extracts compared with teupolioside and isoteupolioside. Platelet rich plasma has been obtained from rabbit venous blood by mixing it with a 3.8% sodium citrate solution (9:1 v/v). The solution has then been centrifuged at 460×g for 20 minutes. The supernatant has been collected and immediately used for the aggregation assays. Platelet aggregation has been recorded using a Chronolog “Ionised calcium platelet aggregometer” (Chrono-log Co., USA). All measurements have been performed at 37° C. with continuous stirring. One milliliter of the platelet suspension (in the presence or absence of the test substances) has been added to the cuvettes and incubated for five minutes to equilibrate the cells to 37° C. Then 10 μl of a solution of ADP (final concentration—10 μM) has been added and the luminous transmittance continuously recorded. The results are expressed as the DT/DTK ratio, where DTK and DT are the luminous transmittance values, in the absence and presence of extract respectively.\nPlatelet disaggregation (the disappearance of pre-formed aggregates) has been determined using the same luminous transmittance curve 10 minutes following the addition of ADP. The results are expressed as the DR/DRk ratio, where DRk and DR, are the luminous transmittance in the absence and presence of extract. The test substances, diluted in physiological solution (isotonic saline) (pH 7.4) are pre-incubated with the platelet rich plasma (1:10 v/v) for 5-40 minutes. The aggregation measurements have then been performed. Physiological solution carrier has been added to the control samples (1:10 v/v)."}, "[1]": {"assay": "Metal chelation, spectrophotometric (Fe2+)", "format": "physicochemical", "from_the_text": "The chelating activities of Ajuga reptans extracts in relation to Fe^2+, Fe^3+, Cu^2+ and Ni^2+ metal ions has been determined by means of spectrophotometric measurements using a Shimadzu 1770 UV spectrophotometer. The activities of chelating agents depends on the association constant (equilibrium) of their reactions with the metals according to the following reaction:\n[formula] wherein Keq is the equilibrium constant equal to the ratio of concentrations at equilibrium of a complex and a product of equilibrium concentrations of metal ions and a chelator:\nThe method used for determining chelating activities is well documented in the literature (Korkina L G, Afarras'er I B. Antioxidant and chelating properties of flavonoids. Adv. Pharmacol., 1997, 38:151-63). The results are expressed as Keq (M^−1) calculated for a pure phenylpropanoid. This way the chelating activity against ferrous (Fe II), ferric (Fe III), copper (Cu II) and nickel ions has been calculated."}, "A549 cells (ATCC-CCL185)": {"tested_on": "A549 cells (ATCC-CCL185)", "assay": "BSO-induced oxidative stress, ROS by DCF fluorimetry in A549 cells", "format": "cell-based, human", "details": "20 μM; with BSO; control without BSO = 100", "procedure": "10×10^5 A549 cells (ATCC-CCL185) have been seeded into wells with 3 ml of DMEM/F12K HAM medium (Sigma-Aldrich) with 10% FCS and incubated at 37° C. in a 5% CO2, water vapour saturated atmosphere. After 24 hours the culture medium is replaced by medium supplemented with BSO, which is left in contact with the cells for 20 hours. The medium is once again replaced with medium containing BSO in the presence or absence of the test compound. After 4 hours, quantitative measurement of the ROSs (hydroxyl radicals) is performed by washing the cells with phosphate buffer and then incubating them with 30 μM DCF-DA in buffer solution. At the end of a 15 minute incubation, excess DCF-DA is removed from the cells by washing, prior to measuring the fluorescence emitted.\nAntioxidant activity measurements are performed using a (Hitachi F3010) spectrophotometer with excitation at 488 nm and measuring emission at 525 nm, and values are expressed in pmoles, by extrapolation from the calibration curve constructed using known quantities of DCF, and in relation to total cellular protein. Values are thus expressed in % ages with respect to the ROS content of the cells not subjected to treatment with BSO (control) to which are assigned a value of 100.\nThe Extracts 1 and 2, Teupolioside and Ascorbic Acid were solubilized in phosphate buffer 10 mM at pH 7.4, whereas trolox was solubilized in 0.1% of dimethylsulphoxide and culture medium."}, "3T3 fibroblasts": {"tested_on": "3T3 fibroblasts", "assay": "BSO-induced oxidative death of 3T3 fibroblasts (MTT)", "format": "cell-based, BALB/c mouse", "details": "20 μM; BSO 200 μM, 24 hours"}, "[2]": {"assay": "Superoxide anion chemiluminescent assay (hypoxanthine/xanthine oxidase, Lumimax kit)", "format": "biochemical", "details": "means of 6 independent assays", "from_the_text": "(§1) The superoxide anion has been measured by a chemiluminescent assay based on the hypoxanthine (HPX)/xanthine oxidase (XOD) reaction using the Lumimax Superoxide Anion Detection Kit (Stratagene, La Jolla, Calif., USA) and following the manufacturer's instructions. Hydroxyl radical scavenger activity has been measured by means of the Fenton reaction for the production of hydroxyl radicals and chemiluminescent dosage (using a Victor^3 chemiluminometer, Wallac, Finland) with luminol. Peroxynitrite ions have been determined by means of dosage with a spontaneous generator of peroxynitrites (3-morpholinosidnonimine hydrochloride; SIN-1) and a stable reagent for the nitroxyl ions (2-(4-carboxyphenyl)-4,4,5,5-tetramethylimidazoline-1-oxyl-3-oxide potassium salt PTIO spin trap) then dosed by means of electron spin resonance (ESR) using a Nippon Denshi JES-FR30. Lipid peroxidation has been generated using Fe^2+ induced-oxygen reactive species, and detected using thiobarbituric acid in accordance with Buege, J A & Aust, S D: Microsomal lipid peroxidation (Methods Enzymol.\n(§2) The results are expressed as the concentration inhibiting 50% of activity (IC50), means of 6 independent assays."}, "[3]": {"assay": "Peroxynitrite scavenging (SIN-1, PTIO spin trap, ESR)", "format": "biochemical", "details": "means of 6 independent assays", "from_the_text": "as §1, §2"}}, "note": "Like-named read-outs stand apart in the source and are kept apart here."}
{"molecule": "CC1OC(OC2C(O)C(COC(=O)C=Cc3ccc(O)c(O)c3)OC(OCCc3ccc(O)c(O)c3)C2O)C(OC2OC(CO)C(O)C(O)C2O)C(O)C1O", "note": "(stereo not shown) [Isoteupolioside, isoteupolioside]", "values": [{"measurement": "IC50", "setting": "whole blood; Homo sapiens", "value": 1.3, "unit": "mg/mL"}, {"measurement": "Platelet disaggregation test, activity in words", "setting": "platelets", "value": "activity similar to teupolioside"}, {"measurement": "Fe^2+ (Keq, M^−1)", "setting": "[1]", "value": "340000 ± 10000", "unit": "M⁻¹"}]}
{"molecule": "C[C@@H]1O[C@@H](O[C@@H]2[C@@H](O)[C@H](OCCc3ccc(O)c(O)c3)O[C@H](CO)[C@H]2OC(=O)/C=C/c2ccc(O)c(O)c2)[C@H](O[C@@H]2O[C@H](CO)[C@H](O)[C@H](O)[C@H]2O)[C@H](O)[C@H]1O", "note": "[Teupolioside, teupolioside]", "values": [{"measurement": "% ROS in picomoles", "setting": "A549 cells (ATCC-CCL185)", "value": "135 ± 7", "unit": "%"}, {"measurement": "% survived cells", "setting": "3T3 fibroblasts", "value": 75.5, "unit": "%"}, {"measurement": "IC50", "setting": "whole blood; fresh human blood, luminol, 30 min, 37° C.", "value": 1.4, "unit": "mg/mL"}, {"measurement": "Superoxide radical (IC50)", "setting": "[2]", "value": 1, "unit": "µg/mL"}, {"measurement": "Effect on platelet aggregation, in words", "setting": "platelets", "value": "modest inhibiting effect on platelet aggregation, only at 1 mg/ml concentration"}, {"measurement": "Control disaggregation", "setting": "platelets; 0.001 mg/ml", "value": "105 ± 5"}, {"measurement": "Control aggregation", "setting": "platelets; 0.001 mg/ml", "value": "121 ± 6"}, {"measurement": "Latency period", "setting": "platelets; 0.001 mg/ml", "value": "101 ± 3"}, {"measurement": "Control disaggregation", "setting": "platelets; 0.01 mg/ml", "value": "113 ± 10"}, {"measurement": "Control aggregation", "setting": "platelets; 0.01 mg/ml", "value": "110 ± 10"}, {"measurement": "Latency period", "setting": "platelets; 0.01 mg/ml", "value": "95 ± 5"}, {"measurement": "Control disaggregation", "setting": "platelets; 0.1 mg/ml", "value": "124 ± 15"}, {"measurement": "Control aggregation", "setting": "platelets; 0.1 mg/ml", "value": "114 ± 10"}, {"measurement": "Latency period", "setting": "platelets; 0.1 mg/ml", "value": "94 ± 4"}, {"measurement": "Control disaggregation", "setting": "platelets; 1.0 mg/ml", "value": "100 ± 10"}, {"measurement": "Control aggregation", "setting": "platelets; 1.0 mg/ml", "value": "68 ± 9"}, {"measurement": "Latency period", "setting": "platelets; 1.0 mg/ml", "value": "66 ± 10"}, {"measurement": "Peroxynitrite radical (IC50)", "setting": "[3]", "value": 1.8, "unit": "µg/mL"}, {"measurement": "Fe^2+ (Keq, M^−1)", "setting": "[1]; calculated for a pure phenylpropanoid", "value": "350000 ± 20000", "unit": "M⁻¹"}]}
